Laboratory results taken from publication PMC5987880 (The Journal of General Physiology, 2018).
Values joined by “and” are separate entries in the source; they are usually repeats but may differ in a detail not shown here. Identical values can stand only once.

Experiments:
SthK [1] = molecular target: T1, SthK (Spirochaeta thermophila, UniProt G0GA88); assay: Single-channel recordings of purified SthK in horizontal lipid bilayers; assay type: biochemical
T1 sequence (G0GA88 1-420): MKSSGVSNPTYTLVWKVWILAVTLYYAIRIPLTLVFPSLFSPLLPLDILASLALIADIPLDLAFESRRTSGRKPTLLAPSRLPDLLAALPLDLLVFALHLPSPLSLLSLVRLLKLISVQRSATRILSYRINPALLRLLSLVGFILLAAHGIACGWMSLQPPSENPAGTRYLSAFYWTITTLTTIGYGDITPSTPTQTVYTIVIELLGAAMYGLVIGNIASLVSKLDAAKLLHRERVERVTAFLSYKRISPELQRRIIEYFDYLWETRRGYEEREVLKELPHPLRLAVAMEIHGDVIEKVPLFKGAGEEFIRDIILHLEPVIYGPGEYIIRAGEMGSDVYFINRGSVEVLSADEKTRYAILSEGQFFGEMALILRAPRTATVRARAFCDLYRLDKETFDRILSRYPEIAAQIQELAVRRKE

SthK [2] = molecular target: T1, SthK; assay: Sequential-mixing stopped-flow fluorescence Tl+ flux assay with SthK liposomes; assay type: biochemical
SthK [3] = molecular target: T1, SthK; assay: 86Rb+ flux; assay type: biochemical; conditions: 200 µM cyclic nucleotide, 5:3:2 DOPC:POPG:cardiolipin liposomes
SthK [4] = molecular target: T1, SthK; conditions: at 100 mV; ref Brams et al. (2014); cited from earlier work
isolated CNBD of MloK1 = conditions: read-out: Kd for isolated CNBD of MloK1; ref Cukkemane et al., 2007; cited from earlier work
HCN4 = conditions: read-out: Kd for HCN4; ref Akimoto et al., 2014; cited from earlier work
[5] = molecular target: SthK, cyclic nucleotide-gated (CNG) channel from Spirochaeta thermophila, final expression construct SthK_(Δ421–430) (Spirochaeta thermophila); assay: cross-linking

Nc1ncnc2c1ncn2[C@@H]1O[C@@H]2COP(=O)(O)O[C@H]2[C@H]1O [cAMP, cyclic adenosine monophosphate]
Open probability Po at 0 mV (SthK [1]; cAMP alone, 0 mV): ≈ 0.1
Hill coefficient nH, bilayer recordings (SthK [1]; open probability at 100 mV (Eq. 10)): 3
Time to maximum activation of SthK (SthK [2]; 200 µM cAMP): 2 s and 1 to 2 s
Activation time constant τ1 (SthK [2]; 200 µM cAMP, delay 0.015-10 s, sum of two exponentials (amplitude 0.45)): ≈ 0.05 s
Activation time constant τ2 (SthK [2]; 200 µM cAMP, delay 0.015-10 s, sum of two exponentials (amplitude 0.55)): ≈ 1.04 s
Slow activation phase (as stated in the Discussion) (SthK [2]; activation kinetics of SthK): ~2 s
86Rb+ uptake through SthK liposomes (SthK [3]): robust cAMP-dependent activity
Open probability Po in oocytes (SthK [4]): ≈ 0.14

Nc1nc2c(ncn2[C@@H]2O[C@@H]3COP(=O)(O)O[C@H]3[C@H]2O)c(=O)[nH]1 [cGMP, cyclic guanosine monophosphate]
Open probability Po with cGMP (SthK [1]; cGMP alone): < 0.003

Nc1ncnc2c1nc(SCCNc1ccc([N+](=O)[O-])c3nonc13)n2[C@@H]1O[C@@H]2COP(=O)(O)O[C@H]2[C@H]1O [fcAMP, 8-NBD-cAMP]
Kd (isolated CNBD of MloK1): ~15.9 nM
Kd (HCN4): 5000 nM

SthK, cyclic nucleotide-gated (CNG) channel from Spirochaeta thermophila, final expression construct SthK_(Δ421–430) (natural protein)
stoichiometry N [5]: 4
